Measurements: patent US20100010219A1, “METHOD FOR PRODUCING PYRROLIDINE COMPOUND” (JAPAN TOBACCO INC., priority 2006, published 2010)
Counter-ions that a name gives are not always drawn.

Molecular target: T1, human HSD-1 (recombinant HSD-1) (Homo sapiens, UniProt P28845)
T1 construct: made in house
Assay: HSD-1 activity inhibitory action in vitro (SPA, conversion of cortisone to cortisol)
Assay type: biochemical
Settings: recombinant human HSD-1 expressed using baculovirus system; 10 nM 3H cortisone, 500 μM NADPH; room temperature 90 to 120 min; read-out: hHSD1 (IC50 (nM))

T1 sequence (P28845 whole entry): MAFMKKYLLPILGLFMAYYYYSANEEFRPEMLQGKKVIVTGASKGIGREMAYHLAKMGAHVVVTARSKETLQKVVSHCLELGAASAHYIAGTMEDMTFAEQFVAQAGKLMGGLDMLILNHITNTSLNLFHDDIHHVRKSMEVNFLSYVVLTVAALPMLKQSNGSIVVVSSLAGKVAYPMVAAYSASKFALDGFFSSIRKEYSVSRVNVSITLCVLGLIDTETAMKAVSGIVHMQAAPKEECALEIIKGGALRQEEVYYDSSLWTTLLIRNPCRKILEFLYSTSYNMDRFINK

IC50, < 30 nM:
NC(=O)CCN1CCC(n2ncc(C(=O)N3CC[C@@H](c4ccccc4C(F)(F)F)C3)c2C2CC2)CC1 [Example 97, 1-{1-[1-(2-carbamoylethyl)piperidin-4-yl]-5-cyclopropyl-1H-pyrazole-4-carbonyl}-[(S)-3-(2-trifluoromethylphenyl)]pyrrolidine hydrochloride]
CC(C)[C@@H](C(=O)O)N(C)C(=O)N1CCC(n2ncc(C(=O)N3CCC(c4ccccc4C(F)(F)F)C3)c2C2CC2)CC1 (stereo partly drawn) [Example 142, 1-(5-cyclopropyl-1-{1-[((S)-1-carboxy-2-methyl-propyl)methylcarbamoyl]piperidin-4-yl}-1H-pyrazole-4-carbonyl)-3-(2-trifluoromethylphenyl)pyrrolidine]
O=C(c1cnn(C2CCN(C(=O)N3CC(F)(F)C(F)(F)C3)CC2)c1C1CC1)N1CC[C@@H](c2ccccc2C(F)(F)F)C1 [Example 48, 1-{5-cyclopropyl-1-[1-(3,3,4,4-tetrafluoropyrrolidine-1-carbonyl)piperidin-4-yl]-1H-pyrazole-4-carbonyl}-[(S)-3-(2-trifluoromethylphenyl)]pyrrolidine]
O=C(NC1(CO)CC1)N1CCC(n2ncc(C(=O)N3CC[C@@H](c4ccccc4C(F)(F)F)C3)c2C2CC2)CC1 [Example 7, 1-{5-cyclopropyl-1-[1-(1-hydroxymethylcyclopropylcarbamoyl)piperidin-4-yl]-1H-pyrazole-4-carbonyl}-[(S)-3-(2-trifluoromethylphenyl)]pyrrolidine]
O=C(Nc1ccccc1CO)N1CCC(n2ncc(C(=O)N3CC[C@@H](c4ccccc4C(F)(F)F)C3)c2C2CC2)CC1 [Example 6, 1-{5-cyclopropyl-1-[1-(2-hydroxymethylphenylcarbamoyl)piperidin-4-yl]-1H-pyrazole-4-carbonyl}-[(S)-3-(2-trifluoromethylphenyl)]pyrrolidine]
COC1(c2c(C(=O)N3CCC(c4ccccc4C(F)(F)F)C3)cnn2C2CCN(C(=O)Nc3ccccc3F)CC2)CC1 (stereo not shown) [Example 134, 1-{1-[1-(2-fluorophenylcarbamoyl)piperidin-4-yl]-5-(1-methoxycyclopropyl)-1H-pyrazole-4-carbonyl}-3-(2-trifluoromethylphenyl)pyrrolidine]
CC(C)(CC(=O)N1CCC(n2ncc(C(=O)N3CCC(c4ccccc4C(F)(F)F)C3)c2C2CC2)CC1)C(=O)O (stereo not shown) [Example 154, 1-{1-[1-(3-carboxy-3-methyl-butyryl)piperidin-4-yl]-5-cyclopropyl-1H-pyrazole-4-carbonyl}-3-(2-trifluoromethylphenyl)pyrrolidine]
CC(=O)NCC(=O)N1CCC(n2ncc(C(=O)N3CC[C@@H](c4ccccc4C(F)(F)F)C3)c2C2CC2)CC1 [Example 68, 1-{1-[1-(2-acetylaminoacetyl)piperidin-4-yl]-5-cyclopropyl-1H-pyrazole-4-carbonyl}-[(S)-3-(2-trifluoromethylphenyl)]pyrrolidine]
CC(C)C[C@@H](CO)NC(=O)N1CCC(n2ncc(C(=O)N3CC[C@@H](c4ccccc4C(F)(F)F)C3)c2C2CC2)CC1 [Example 52, 1-(5-cyclopropyl-1-{1-[(S)-1-hydroxymethyl-3-methylbutylcarbamoyl]piperidin-4-yl}-1H-pyrazole-4-carbonyl)-[(S)-3-(2-trifluoromethylphenyl)]pyrrolidine]
N#Cc1ccc(N2CCC(n3ncc(C(=O)N4CCC(c5ccccc5C(F)(F)F)C4)c3C3CC3)CC2)nc1 (stereo not shown) [Example 175, 1-{1-[1-(5-cyanopyridin-2-yl)piperidin-4-yl]-5-cyclopropyl-1H-pyrazole-4-carbonyl}-3-(2-trifluoromethylphenyl)pyrrolidine]
O=C(c1cnn(C2CCN(C(=O)N3CCC[C@@H](O)C3)CC2)c1C1CC1)N1CC[C@@H](c2ccccc2C(F)(F)F)C1 [Example 32, 1-(5-cyclopropyl-1-{1-[(R)-3-hydroxypiperidine-1-carbonyl]piperidin-4-yl}-1H-pyrazole-4-carbonyl)-[(S)-3-(2-trifluoromethylphenyl)]pyrrolidine]
CC(=O)OCCC1(c2ccc(F)cc2)CCN(C(=O)c2cnn(C3CCN(c4ncccn4)CC3)c2C2(C)CC2)C1 (stereo not shown) [Example 176, 3-(2-acetoxyethyl)-3-(4-fluorophenyl)-1-{5-(1-methylcyclopropyl)-1-[1-(pyrimidin-2-yl)piperidin-4-yl]-1H-pyrazole-4-carbonyl}pyrrolidine hydrochloride]
NC(=O)C1(CN2CCC(n3ncc(C(=O)N4CC[C@@H](c5ccccc5C(F)(F)F)C4)c3C3CC3)CC2)CC1 [Example 106, 1-{1-[1-(1-carbamoylcyclopropylmethyl)piperidin-4-yl]-5-cyclopropyl-1H-pyrazole-4-carbonyl}-[(S)-3-(2-trifluoromethylphenyl)]pyrrolidine hydrochloride]
CC(C)(CN1CCC(n2ncc(C(=O)N3CC[C@@H](c4ccccc4C(F)(F)F)C3)c2C2CC2)CC1)C(N)=O [Example 105, 1-{1-[1-(2-carbamoyl-2-methylpropyl)piperidin-4-yl]-5-cyclopropyl-1H-pyrazole-4-carbonyl}-[(S)-3-(2-trifluoromethylphenyl)]pyrrolidine hydrochloride]
O=C(c1cnn(C2CCN(c3n[nH]c(CO)n3)CC2)c1C1CC1)N1CC[C@@H](c2ccccc2C(F)(F)F)C1 [Example 119, 1-{5-cyclopropyl-1-[1-(5-hydroxymethyl-4H-[1,2,4]triazol-3-yl)piperidin-4-yl]-1H-pyrazole-4-carbonyl}-[(S)-3-(2-trifluoromethylphenyl)]pyrrolidine hydrochloride]
O=C(NCCN1CCCCC1)N1CCC(n2ncc(C(=O)N3CC[C@@H](c4ccccc4C(F)(F)F)C3)c2C2CC2)CC1 [Example 17, 1-{5-cyclopropyl-1-[1-(2-piperidin-1-yl-ethylcarbamoyl)piperidin-4-yl]-1H-pyrazole-4-carbonyl}-[(S)-3-(2-trifluoromethylphenyl)]pyrrolidine hydrochloride]
O=C(c1cnn(C2CCN(C(=O)N3CCC3)CC2)c1C1CC1)N1CC[C@@H](c2ccccc2C(F)(F)F)C1 [Example 15, 1-{1-[1-(azetidine-1-carbonyl)piperidin-4-yl]-5-cyclopropyl-1H-pyrazole-4-carbonyl}-[(S)-3-(2-trifluoromethylphenyl)]pyrrolidine]
CC(=O)N1CCN(C(=O)N2CCC(n3ncc(C(=O)N4CC[C@@H](c5ccccc5C(F)(F)F)C4)c3C3CC3)CC2)CC1 [Example 31, 1-{1-[1-(4-acetylpiperazine-1-carbonyl)piperidin-4-yl]-5-cyclopropyl-1H-pyrazole-4-carbonyl}-[(S)-3-(2-trifluoromethylphenyl)]pyrrolidine]
C/C(=N\C#N)N1CCC(n2ncc(C(=O)N3CC[C@@H](c4ccccc4C(F)(F)F)C3)c2C2CC2)CC1 [Example 110, 1-{1-[1-(1-cyanoiminoethyl)piperidin-4-yl]-5-cyclopropyl-1H-pyrazole-4-carbonyl}-[(S)-3-(2-trifluoromethylphenyl)]pyrrolidine]
